Experiment: Membrane fatty acid analysis in red blood cells (GC-MS) of UC patients given EPA-FFA
Assay type: in vivo, human
Experimental: A study will be conducted with patients having long-standing UC. Specifically, about 20 long-standing UC patients in stable clinical remission (SCCAI=0) and with fecal calprotectin (FC)>150 μg/g measured in stools are recruited and treated with 2 g/day of EPA-FFA for 90 days. Biopsies and biological samples are collected at the entry (TO) and at the end of the study (T3). Compliance is evaluated by EPA incorporation into red blood cell membranes. Protein levels of Jagged1, Hes1, STAT3, phospho-STAT3 and KLF-4 are determined by western blotting. IL-22, IL-10 and SOCS3 mRNA levels are analyzed by qRT-PCR. Goblet cells are stained by Alcian blue. Microbiota analyses are performed on fecal and biopsies DNA samples sequencing the V3-V4 region of the bacterial 16S rRNA gene. As a reference, a healthy adult population is used. Endoscopic and histologic disease activities are measured by Mayo and Geboes scores respectively.
Since EPA can be converted into the m-3 PUFA docosahexaenoic acid (DHA) in vivo through docosapentaenoic acid (DPA) (19), the overall ω-3 PUFAs content is also measured including EPA, DPA and DHA, in the patients.
Eligible patients are asymptomatic subjects aged 18-70 years with long-standing (≥8 years) UC, in stable clinical remission (simple clinical colitis activity index; SCCAI=0), and FC levels higher than 150 μg/g (53). Exclusion criteria are (1) recent use of steroids (<2 months) or other experimental drugs (<3 months); (2) concomitant use of anticoagulants; (3) probiotic use; (4) pregnancy or breast-feeding; (5) known or suspected hypersensitivity to eicosapentaenoic acid or ω-3 PUF As; and (6) severe co-morbidities. […] Adherence to EPA-FFA supplementation is evaluated both by capsule counting and assessing EPA incorporation into red blood cell (RBC) membranes. […]
Membrane fatty acids content is measured in RBCs. […] Extracted fatty acid methyl-esters are then analyzed by gas-chromatography mass-spectrometry (GC-MS). Fatty acid levels are expressed as relative percentages of total fatty acids.

[1] = short-term EPA-FFA supplementation, long-standing UC patients

With `CC/C=C\C/C=C\C/C=C\C/C=C\C/C=C\CCCC(=O)O` [EPA-FFA, eicosapentaenoic acid] the “EPA in RBC-purified membranes” value (UC patients, 2 g/day EPA-FFA for 90 days) was “significant increase”, the “EPA and overall ω-3 PUFAs content (EPA, DPA and DHA) into RBCs” value [1] was “increase” and the “patients who incorporated EPA into RBCs” value [1] was 17/19.
